In article PMC11339948 (Chemical Science, 2024):
Bridge positions count the residues as written; N and C are the ends. Square brackets hold non-standard residues; d marks the D form. Ends that are not written are not given here. pGlu = O=C1CC[C@@H](C(=O)O)N1

Molecular target: full-length TDP1 (Homo sapiens, UniProt Q9NUW8)
Assay: FRET-based TDP1 enzymatic activity inhibition assay
Type: biochemical

Chain of full-length TDP1 (Q9NUW8 whole entry): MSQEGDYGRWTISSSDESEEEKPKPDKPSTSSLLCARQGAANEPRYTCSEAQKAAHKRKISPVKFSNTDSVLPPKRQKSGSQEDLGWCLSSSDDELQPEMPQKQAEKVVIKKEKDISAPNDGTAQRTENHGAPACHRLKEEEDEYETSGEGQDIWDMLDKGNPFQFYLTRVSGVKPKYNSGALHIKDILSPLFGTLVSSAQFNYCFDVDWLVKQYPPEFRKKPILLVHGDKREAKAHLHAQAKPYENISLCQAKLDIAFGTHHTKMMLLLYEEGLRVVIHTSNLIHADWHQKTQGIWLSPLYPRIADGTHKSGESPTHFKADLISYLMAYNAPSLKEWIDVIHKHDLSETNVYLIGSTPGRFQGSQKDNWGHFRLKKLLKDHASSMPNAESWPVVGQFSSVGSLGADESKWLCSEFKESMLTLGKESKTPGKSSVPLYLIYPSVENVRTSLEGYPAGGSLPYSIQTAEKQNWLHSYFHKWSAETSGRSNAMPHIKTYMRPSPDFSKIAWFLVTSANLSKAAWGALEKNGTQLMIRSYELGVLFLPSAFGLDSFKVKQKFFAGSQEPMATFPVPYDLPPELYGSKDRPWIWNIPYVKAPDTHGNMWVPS

IC50	Substance
580 nM	[pGlu]EAFCYSDRFCQNYIGSIPDCCFGRGSYSFELQPPPWECYQC (disulfide 5-21, 11-39, 22-42) [Synthetic recifin A, recifin A]
800 nM	[pGlu]EAFCYSDRFCQNYIGSIPDCCFGRGSYSFELQPPPWECYQC (disulfide 5-21, 11-39, 22-42) [Native recifin A, recifin A]
